In patent US10633379B2, “Bromodomain inhibitors” (AbbVie Inc., priority 2016, dated 2020):

How the values were obtained:
BRD4 (BDII_E352-M457) = BRD4 (BDII_E352-M457) (Homo sapiens (Human), UniProt O60885); test: TR-FRET bromodomain binding assay, BRD4 BDII; settings: mean Ki, calculated from IC50, probe Kd and probe concentration
Summary of the method: (§1)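 His-tagged BRD4 BDI (12 nM, with 100 nM Alexa647 BET-inhibitor probe) or BDII (4 nM, 30 nM probe), plus 1 nM Eu-anti-His antibody, in pH 6.0 phosphate buffer with 2% DMSO. Equilibrated 1 h at room temperature and read by TR-FRET. IC50 from a 4-parameter fit was converted to Ki using probe Kd and probe concentration.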

BRD4 (BDI_K57-E168) = BRD4 (BDI_K57-E168) (Homo sapiens (Human), UniProt O60885); test: TR-FRET bromodomain binding assay, BRD4 BDI; settings: mean Ki, calculated from IC50, probe Kd and probe concentration
Summary of the method: as §1

Ki (BRD4 (BDII_E352-M457)) [nM]	Ki (BRD4 (BDI_K57-E168)) [nM]	SMILES
1.3	222	CCNC(=O)c1cc2c(-c3cc(C(C)(C)O)c(F)cc3Oc3c(C)cc(F)cc3C)cn(C)c(=O)c2[nH]1 [Example 65, N-ethyl-4-[4-fluoro-2-(4-fluoro-2,6-dimethylphenoxy)-5-(2-hydroxypropan-2-yl)phenyl]-6-methyl-7-oxo-6,7-dihydro-1H-pyrrolo[2,3-c]pyridine-2-carboxamide]
1.3	794	CCNC(=O)c1cc2c(-c3cc(C(C)(C)O)ccc3Oc3c(C)cc(Br)cc3C)cn(C)c(=O)c2[nH]1 [Example 72, 4-[2-(4-bromo-2,6-dimethylphenoxy)-5-(2-hydroxypropan-2-yl)phenyl]-N-ethyl-6-methyl-7-oxo-6,7-dihydro-1H-pyrrolo[2,3-c]pyridine-2-carboxamide]
1.5	417	CCNC(=O)c1cc2c(-c3cc(C(C)(C)O)ccc3Oc3c(C)cc(C#N)cc3C)cn(C)c(=O)c2[nH]1 [Example 73, 4-[2-(4-cyano-2,6-dimethylphenoxy)-5-(2-hydroxypropan-2-yl)phenyl]-N-ethyl-6-methyl-7-oxo-6,7-dihydro-1H-pyrrolo[2,3-c]pyridine-2-carboxamide]
2.9	743	Cc1cc(F)cc(C)c1Oc1ccc(C(C)(C)O)cc1-c1cn(C)c(=O)c2[nH]c(C(=O)NC34CC(C3)C4)cc12 [Example 75, N-(bicyclo[1.1.1]pentan-1-yl)-4-[2-(4-fluoro-2,6-dimethylphenoxy)-5-(2-hydroxypropan-2-yl)phenyl]-6-methyl-7-oxo-6,7-dihydro-1H-pyrrolo[2,3-c]pyridine-2-carboxamide]
2.2	253	CCNC(=O)c1cc2c(-c3cc(C(C)(O)CF)cnc3Oc3c(C)cc(F)cc3C)cn(C)c(=O)c2[nH]1 (stereo not drawn) [Example 78, N-ethyl-4-[2-(4-fluoro-2,6-dimethylphenoxy)-5-(1-fluoro-2-hydroxypropan-2-yl)pyridin-3-yl]-6-methyl-7-oxo-6,7-dihydro-1H-pyrrolo[2,3-c]pyridine-2-carboxamide]
2.5	225	CCNC(=O)c1cc2c(-c3cc(C(C)(O)C(F)(F)F)cnc3Oc3c(C)cc(F)cc3C)cn(C)c(=O)c2[nH]1 (stereo not drawn) [Example 79, N-ethyl-4-[2-(4-fluoro-2,6-dimethylphenoxy)-5-(1,1,1-trifluoro-2-hydroxypropan-2-yl)pyridin-3-yl]-6-methyl-7-oxo-6,7-dihydro-1H-pyrrolo[2,3-c]pyridine-2-carboxamide]
5.2	486	CCNC(=O)c1cc2c(-c3cc(C(O)(C(F)(F)F)C(F)(F)F)cnc3Oc3c(C)cc(F)cc3C)cn(C)c(=O)c2[nH]1 [Example 80, N-ethyl-4-[2-(4-fluoro-2,6-dimethylphenoxy)-5-(1,1,1,3,3,3-hexafluoro-2-hydroxypropan-2-yl)pyridin-3-yl]-6-methyl-7-oxo-6,7-dihydro-1H-pyrrolo[2,3-c]pyridine-2-carboxamide]
1.1	350	CCNC(=O)c1cc2c(-c3cc(C(C)(O)CF)ccc3Oc3c(C)cc(F)cc3C)cn(C)c(=O)c2[nH]1 (stereo not drawn) [Example 83, N-ethyl-4-[2-(4-fluoro-2,6-dimethylphenoxy)-5-(1-fluoro-2-hydroxypropan-2-yl)phenyl]-6-methyl-7-oxo-6,7-dihydro-1H-pyrrolo[2,3-c]pyridine-2-carboxamide]
1.9	610	CCNC(=O)c1cc2c(-c3cc(C(C)(C)O)ccc3Oc3c(C)cc(Cl)cc3C)cn(C)c(=O)c2[nH]1 [Example 84, 4-[2-(4-chloro-2,6-dimethylphenoxy)-5-(2-hydroxypropan-2-yl)phenyl]-N-ethyl-6-methyl-7-oxo-6,7-dihydro-1H-pyrrolo[2,3-c]pyridine-2-carboxamide]
1.8	433	CCNC(=O)c1cc2c(-c3cc(C(C)(C)O)ccc3Oc3c(C)cc(S(C)(=O)=O)cc3C)cn(C)c(=O)c2[nH]1 [Example 85, N-ethyl-4-{5-(2-hydroxypropan-2-yl)-2-[4-(methanesulfonyl)-2,6-dimethylphenoxy]phenyl}-6-methyl-7-oxo-6,7-dihydro-1H-pyrrolo[2,3-c]pyridine-2-carboxamide]

Further lines, the compound ahead of its results:

SMILES	Ki (BRD4 (BDII_E352-M457)) [nM]	Ki (BRD4 (BDI_K57-E168)) [nM]
CCNC(=O)c1cc2c(-c3cc(C(C)(O)CO)ccc3Oc3c(C)cccc3C)cn(C)c(=O)c2[nH]1 (stereo not drawn) [Example 66, 4-[5-(1,2-dihydroxypropan-2-yl)-2-(2,6-dimethylphenoxy)phenyl]-N-ethyl-6-methyl-7-oxo-6,7-dihydro-1H-pyrrolo[2,3-c]pyridine-2-carboxamide]	1.4	289
CCNC(=O)c1cc2c(-c3cc(C(C)(O)CCO)ccc3Oc3c(C)cccc3C)cn(C)c(=O)c2[nH]1 (stereo not drawn) [Example 67, 4-[5-(2,4-dihydroxybutan-2-yl)-2-(2,6-dimethylphenoxy)phenyl]-N-ethyl-6-methyl-7-oxo-6,7-dihydro-1H-pyrrolo[2,3-c]pyridine-2-carboxamide]	1.1	259
CCNC(=O)c1cc2c(-c3cc(C(C)(C)O)ccc3Oc3c(C)cccc3C(F)F)cn(C)c(=O)c2[nH]1 [Example 70, 4-{2-[2-(difluoromethyl)-6-methylphenoxy]-5-(2-hydroxypropan-2-yl)phenyl}-N-ethyl-6-methyl-7-oxo-6,7-dihydro-1H-pyrrolo[2,3-c]pyridine-2-carboxamide]	3.7	1340
Cc1cccc(C(F)F)c1Oc1ccc(C(C)(C)O)cc1-c1cn(C)c(=O)c2[nH]c(C(=O)NC(C)(C)C)cc12 [Example 71, N-tert-butyl-4-{2-[2-(difluoromethyl)-6-methylphenoxy]-5-(2-hydroxypropan-2-yl)phenyl}-6-methyl-7-oxo-6,7-dihydro-1H-pyrrolo[2,3-c]pyridine-2-carboxamide]	7.5	2310
CCNC(=O)c1cc2c(-c3cc(C(C)(C)O)ccc3Oc3c(C)ccnc3C)cn(C)c(=O)c2[nH]1 [Example 74, 4-{2-[(2,4-dimethylpyridin-3-yl)oxy]-5-(2-hydroxypropan-2-yl)phenyl}-N-ethyl-6-methyl-7-oxo-6,7-dihydro-1H-pyrrolo[2,3-c]pyridine-2-carboxamide]	3	551
Cc1cccc(C)c1Oc1ccc(C(C)(C)O)nc1-c1cn(C)c(=O)c2[nH]c(C(=O)NC(C)(C)C)cc12 [Example 76, N-tert-butyl-4-[3-(2,6-dimethylphenoxy)-6-(2-hydroxypropan-2-yl)pyridin-2-yl]-6-methyl-7-oxo-6,7-dihydro-1H-pyrrolo[2,3-c]pyridine-2-carboxamide]	8.7	927
CCNC(=O)c1cc2c(-c3nc(C(C)(C)O)ccc3Oc3c(C)cccc3C)cn(C)c(=O)c2[nH]1 [Example 77, 4-[3-(2,6-dimethylphenoxy)-6-(2-hydroxypropan-2-yl)pyridin-2-yl]-N-ethyl-6-methyl-7-oxo-6,7-dihydro-1H-pyrrolo[2,3-c]pyridine-2-carboxamide]	2.2	606
CCNC(=O)c1cc2c(-c3cc(C(C)(C)O)ccc3Oc3c(C)cccc3F)cn(C)c(=O)c2[nH]1 [Example 81, N-ethyl-4-[2-(2-fluoro-6-methylphenoxy)-5-(2-hydroxypropan-2-yl)phenyl]-6-methyl-7-oxo-6,7-dihydro-1H-pyrrolo[2,3-c]pyridine-2-carboxamide]	1.1	43
